Assay results as given in patent US6432880B1, “Substituted 2-phenylpyridines as herbicides” (BASF Aktiengesellschaft, priority 1999, dated 2002).

SMILES | melting point [°C]
CS(=O)(=O)Oc1cnc(-c2cc(O)c(Cl)cc2F)c(Cl)c1 [Ia.362, 2-(4-chloro-2-fluoro-5-hydroxyphenyl)-3-chloro-5-(methylsulfonyl-oxy) pyridine] | 132 to 133
COc1cc(-c2ncc(OS(C)(=O)=O)cc2Cl)c(F)cc1Cl [Ia.363, 2-(4-chloro-2-fluoro-5-methoxyphenyl)-3-chloro-5-(methylsulfonyl-oxy)pyridine] | 118 to 120
